This passage reports Km results from paper PMC8060642, “Cloning, Expression, Characterization, and Antioxidant Protection of Glutaredoxin3 From Psychrophilic Bacterium Psychrobacter sp. ANT206” (Frontiers in Microbiology, 2021).

Molecules are shown by their SMILES.

The assay deals with T1, Ps-Grx3.
T1 construct: full length, 87 residues (264 bp ORF), class I dithiol Grx with CPYC motif
As to the kind of experiment: GR-coupled NADPH oxidation at […] nm, Lineweaver-Burk. The conditions noted are these: 100 mM Tris-HCl pH 8.0, 25 °C; 1.0 mM GSH, 0.2 mM NADPH, 0.6 μg/mL GR; substrate 0.5-2.0 mM. Format: biochemical, Psychrobacter sp. ANT206.

Take `O=C1O[C@H]([C@@H](O)CO)C(=O)C1=O` [DHA, dehydroascorbate]: the Km came to 650 µM.
The figure for `OCCSSCCO` [HED, 2-Hydroxyethyl disulfide] is 690 µM; for `N[C@@H](CSSC[C@H](N)C(=O)O)C(=O)O` [L-cystine] it is 520 µM; for `N[C@@H](CSS(=O)(=O)O)C(=O)O` [S-sulfocysteine] it is 790 µM.
